These results are taken from patent US20230374025A1, “FGFR INHIBITOR COMPOUND AND USE THEREOF” (SHENZHEN KANGSU PHARMACEUTICAL TECHNOLOGY CO., LTD., priority 2021, published 2023).

Holding throughout (format): biochemical
One experiment addresses T1, FGFR1 V561M (Homo sapiens, UniProt P11362, V561M).
T1 construct: purchased Signalchem F04-13G
Kind of experiment: Assay I: inhibitory activity against FGFR mutants (HTRF KinEASE-TK). Conditions: ATP 5 μM, substrate TK 1 μM. The method in brief:
(§1)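 HTRF KinEASE-TK on FGFR mutant kinases in buffer with 5 mM MgCl2, 1 mM DTT; compound 4-fold serial dilutions (2 mM DMSO start) preincubated 10 min, then TK-substrate-biotin/ATP, 50 min at room temperature. 665/615 nm ratio converted to % inhibition; IC50 from four-parameter fit.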
A general note: TR-FRET usually uses a lanthanide donor and a delayed reading to cut background.

The target of the next experiment is T2, FGFR2 V564F (Homo sapiens, UniProt P21802, V564F).
T2 construct: purchased Signalchem F05-12FG
The experiment is described as above. Conditions: ATP 10 μM, substrate TK 1 μM. In a few lines:
as §1

Another experiment addresses T3, FGFR3 V555M (Homo sapiens, UniProt P22607, V555M).
T3 construct: purchased Signalchem F06-12GG
The experiment is described as above. The following applies: ATP 20 μM, substrate TK 1 μM. In a few lines: as §1

The next experiment has as its target T4, VEGFR2 (Homo sapiens, UniProt P35968).
T4 construct: purchased Carna 08-191
The experiment in a line: Assay I: VEGFR2 kinase inhibition (HTRF KinEASE-TK). Conditions: ATP 5 μM, substrate TK 1 μM. The method in brief:
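HTRF KinEASE-TK assay: kinase preincubated 10 min at room temperature with 4-fold compound dilutions (2 mM DMSO starting stock), then TK-substrate-biotin/ATP added for 50 min at room temperature in buffer with 5 mM MgCl2, 1 mM DTT. 665/615 nm ratio converted to % inhibition; IC50 by four-parameter fit.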

For a further experiment, the target named is T5, FGFR1 (Homo sapiens, UniProt P11362).
T5 construct: purchased Carna 08-133
The experiment in a line: Assay II: inhibitory activity against wild-type FGFR (HTRF KinEASE-TK). The following applies: ATP 50 μM, substrate TK 1 μM. The protocol: (§2) Assay II: Determination of Inhibitory Activity Against Wild-Type FGFR
(§3) 1. Reagents and Equipment
(§4) 2. Experimental Steps PGP-5T
(§5) 2.1 Preparation of 1× Kinase Reaction Buffer:
(§6) 1× Kinase reaction buffer was formulated with 1× volume of 5× kinase reaction buffer and 4× volume of water; 5 mM MgCl2; and 1 mM DTT.
(§7) 2.3 Screening of Compounds:
(§8) 1. Diluting a compound 4-fold in a dilution plate with DMSO, with a starting compound concentration of 2 mM.
(§9) 2. Diluting the compound 40-fold into 1× kinase reaction buffer and shaking it on a shaker for 20 minutes.
(§10) 3. Formulating 2×FGFR1/FGFR2/FGFR3 with 1× of enzyme reaction buffer.
(§11) 4. Adding 2 μl FGFR1/FGFR2/FGFR3 kinase (formulated in step 3) to each well of the reaction plate.
(§12) 5. Adding 1 μl of the compound diluted in buffer to each well, sealing the plate with a sealing membrane and centrifuging the plate at 1000 g for 30 seconds and leaving it at room temperature for 10 minutes.
(§13) 6. Formulating 2.5×TK-substrate-biotin and ATP mixture with 1× enzyme reaction buffer and add 2 μl of K-substrate-biotin/ATP mixture to the reaction plate.
(§14) 7. Sealing the plate with a sealing membrane and centrifuging the plate at 1000 g for 30 seconds and allowing it to react at room temperature for 50 minutes.
(§15) 8. Formulating 4× Sa-XL 665 (250 nM) with HTRF assay buffer.
(§16) 9. Adding 5 μl Sa-XL 665 and 5 μl TK-Antibody-Cryptate to each well, centrifuging it at 1000 g for 30 seconds, and allowing it to react for 1 hour at room temperature.
(§17) 10. Reading fluorescence signals at 615 nm (Cryptate) and 665 nm (XL665) with Biotek.
(§18) 3.1 Calculation of the ratio for each well: the ratio was calculated as 665/615 nm.
(§19) 3.3 Calculation of IC50 and plotting of inhibition curves for the compounds.
(§20) The IC50 (half inhibition concentration) of a compound was obtained using the following non-linear fitting equation, wherein data analysis was performed using Graphpad 6.0 software.
(§21) Y=Bottom+(Top−Bottom)/(1+10^((Log IC50−X)*Hill Slope)) • X: log value of compound concentration; and Y: inhibition rate (% inh)
(§22) 3.4 Validation of Results
(§23) Data were exported from Envision and analyzed manually. The ratios were converted to inhibition rates and IC50 was calculated by Prism GraphPad 6.0 from the inhibition rates. IC50 was calculated again by the ratios to verify accuracy of the results.

The next experiment has as its target T6, FGFR2 (Homo sapiens, UniProt P21802).
T6 construct: purchased Carna 08-134
The experiment is described as above. Conditions: ATP 50 μM, substrate TK 1 μM. The protocol:
as §2, §3, §4, §5, §6, §7, §8, §9, §10, §11, §12, §13, §14, §15, §16, §17, §18, §19, §20, §21, §22, §23

The target in a further experiment is T7, FGFR3 (Homo sapiens, UniProt P22607).
T7 construct: purchased Carna 08-135
The description is as above. Conditions: ATP 50 μM, substrate TK 1 μM. The protocol: as §2, §3, §4, §5, §6, §7, §8, §9, §10, §11, §12, §13, §14, §15, §16, §17, §18, §19, §20, §21, §22, §23

T3 sequence (P22607 397-806 V555M limits assumed): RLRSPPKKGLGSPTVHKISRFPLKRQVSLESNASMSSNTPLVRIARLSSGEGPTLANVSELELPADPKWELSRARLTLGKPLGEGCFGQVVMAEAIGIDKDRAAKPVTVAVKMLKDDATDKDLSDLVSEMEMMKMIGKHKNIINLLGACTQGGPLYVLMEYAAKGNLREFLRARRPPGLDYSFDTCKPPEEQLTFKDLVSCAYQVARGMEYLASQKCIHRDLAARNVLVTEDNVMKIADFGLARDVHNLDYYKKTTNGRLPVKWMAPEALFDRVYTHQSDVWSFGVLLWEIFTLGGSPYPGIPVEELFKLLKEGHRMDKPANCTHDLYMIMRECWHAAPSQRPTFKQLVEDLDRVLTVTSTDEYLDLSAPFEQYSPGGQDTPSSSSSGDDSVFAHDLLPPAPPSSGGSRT
T1 sequence (P11362 22-822 V561M): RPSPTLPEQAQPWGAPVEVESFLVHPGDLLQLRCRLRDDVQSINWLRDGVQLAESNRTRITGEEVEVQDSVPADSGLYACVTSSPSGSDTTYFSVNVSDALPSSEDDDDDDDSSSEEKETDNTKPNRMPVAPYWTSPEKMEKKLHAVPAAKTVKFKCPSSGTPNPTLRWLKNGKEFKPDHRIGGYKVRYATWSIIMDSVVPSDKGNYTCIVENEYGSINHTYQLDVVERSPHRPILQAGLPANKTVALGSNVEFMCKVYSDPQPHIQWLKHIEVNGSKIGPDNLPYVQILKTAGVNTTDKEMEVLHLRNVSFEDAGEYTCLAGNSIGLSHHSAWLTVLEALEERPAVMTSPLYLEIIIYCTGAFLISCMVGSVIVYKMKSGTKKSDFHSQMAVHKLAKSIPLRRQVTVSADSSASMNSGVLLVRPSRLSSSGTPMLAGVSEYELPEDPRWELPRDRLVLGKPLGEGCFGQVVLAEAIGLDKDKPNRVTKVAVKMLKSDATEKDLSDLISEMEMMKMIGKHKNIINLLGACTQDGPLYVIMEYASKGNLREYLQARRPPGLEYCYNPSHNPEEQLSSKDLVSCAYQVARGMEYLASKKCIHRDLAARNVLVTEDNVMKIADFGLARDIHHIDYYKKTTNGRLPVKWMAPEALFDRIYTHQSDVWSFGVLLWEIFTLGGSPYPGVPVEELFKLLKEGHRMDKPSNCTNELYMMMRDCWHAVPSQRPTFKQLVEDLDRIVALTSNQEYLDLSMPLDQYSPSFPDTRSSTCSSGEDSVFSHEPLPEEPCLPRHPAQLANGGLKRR
T6 sequence (P21802 22-821): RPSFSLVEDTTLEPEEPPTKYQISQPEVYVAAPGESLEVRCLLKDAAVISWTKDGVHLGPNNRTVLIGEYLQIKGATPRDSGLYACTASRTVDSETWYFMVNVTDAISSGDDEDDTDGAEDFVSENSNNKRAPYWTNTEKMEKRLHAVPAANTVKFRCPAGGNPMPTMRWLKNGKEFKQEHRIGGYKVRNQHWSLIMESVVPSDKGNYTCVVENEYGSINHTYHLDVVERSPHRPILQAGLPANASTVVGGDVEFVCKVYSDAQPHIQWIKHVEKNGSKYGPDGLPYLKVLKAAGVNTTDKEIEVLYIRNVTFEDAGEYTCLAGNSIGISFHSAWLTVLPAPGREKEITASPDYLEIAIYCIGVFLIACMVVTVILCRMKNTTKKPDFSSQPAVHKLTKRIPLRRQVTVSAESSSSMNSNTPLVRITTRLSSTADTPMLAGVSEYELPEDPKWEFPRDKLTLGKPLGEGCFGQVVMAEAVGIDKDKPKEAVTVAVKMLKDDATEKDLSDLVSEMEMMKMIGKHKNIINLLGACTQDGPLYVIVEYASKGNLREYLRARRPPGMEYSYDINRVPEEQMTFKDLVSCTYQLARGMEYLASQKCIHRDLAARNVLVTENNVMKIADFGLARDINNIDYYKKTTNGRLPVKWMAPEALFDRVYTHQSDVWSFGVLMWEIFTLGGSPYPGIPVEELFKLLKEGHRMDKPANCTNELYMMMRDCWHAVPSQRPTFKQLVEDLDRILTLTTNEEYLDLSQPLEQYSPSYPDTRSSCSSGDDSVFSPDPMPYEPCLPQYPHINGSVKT
T2 sequence (P21802 22-821 V564F): as the sequence (P21802 22-821) above, with V543F counted along it
T5 sequence (P11362 22-822): as the sequence (P11362 22-822 V561M) above, with M540V counted along it
T7 sequence (P22607 23-806): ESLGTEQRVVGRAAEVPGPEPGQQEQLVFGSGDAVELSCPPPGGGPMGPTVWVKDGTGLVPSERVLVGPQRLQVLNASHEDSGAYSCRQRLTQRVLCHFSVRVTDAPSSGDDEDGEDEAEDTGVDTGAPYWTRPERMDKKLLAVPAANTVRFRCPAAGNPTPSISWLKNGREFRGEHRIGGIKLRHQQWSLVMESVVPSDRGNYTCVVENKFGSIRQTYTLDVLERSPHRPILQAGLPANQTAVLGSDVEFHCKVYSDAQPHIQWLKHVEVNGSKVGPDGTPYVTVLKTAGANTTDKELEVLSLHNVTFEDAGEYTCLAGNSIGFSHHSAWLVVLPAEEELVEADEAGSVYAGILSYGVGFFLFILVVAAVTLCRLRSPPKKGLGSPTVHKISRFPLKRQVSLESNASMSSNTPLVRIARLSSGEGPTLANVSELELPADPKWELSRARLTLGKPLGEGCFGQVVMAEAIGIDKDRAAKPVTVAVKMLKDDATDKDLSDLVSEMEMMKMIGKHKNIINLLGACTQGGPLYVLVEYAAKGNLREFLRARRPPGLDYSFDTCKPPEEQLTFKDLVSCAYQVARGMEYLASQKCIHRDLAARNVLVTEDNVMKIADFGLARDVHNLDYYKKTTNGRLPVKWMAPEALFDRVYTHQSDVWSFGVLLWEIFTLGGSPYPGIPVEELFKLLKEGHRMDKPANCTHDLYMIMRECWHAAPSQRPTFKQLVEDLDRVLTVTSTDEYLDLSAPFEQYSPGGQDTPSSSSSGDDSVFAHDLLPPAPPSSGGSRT
T4 sequence (P35968 20-1356): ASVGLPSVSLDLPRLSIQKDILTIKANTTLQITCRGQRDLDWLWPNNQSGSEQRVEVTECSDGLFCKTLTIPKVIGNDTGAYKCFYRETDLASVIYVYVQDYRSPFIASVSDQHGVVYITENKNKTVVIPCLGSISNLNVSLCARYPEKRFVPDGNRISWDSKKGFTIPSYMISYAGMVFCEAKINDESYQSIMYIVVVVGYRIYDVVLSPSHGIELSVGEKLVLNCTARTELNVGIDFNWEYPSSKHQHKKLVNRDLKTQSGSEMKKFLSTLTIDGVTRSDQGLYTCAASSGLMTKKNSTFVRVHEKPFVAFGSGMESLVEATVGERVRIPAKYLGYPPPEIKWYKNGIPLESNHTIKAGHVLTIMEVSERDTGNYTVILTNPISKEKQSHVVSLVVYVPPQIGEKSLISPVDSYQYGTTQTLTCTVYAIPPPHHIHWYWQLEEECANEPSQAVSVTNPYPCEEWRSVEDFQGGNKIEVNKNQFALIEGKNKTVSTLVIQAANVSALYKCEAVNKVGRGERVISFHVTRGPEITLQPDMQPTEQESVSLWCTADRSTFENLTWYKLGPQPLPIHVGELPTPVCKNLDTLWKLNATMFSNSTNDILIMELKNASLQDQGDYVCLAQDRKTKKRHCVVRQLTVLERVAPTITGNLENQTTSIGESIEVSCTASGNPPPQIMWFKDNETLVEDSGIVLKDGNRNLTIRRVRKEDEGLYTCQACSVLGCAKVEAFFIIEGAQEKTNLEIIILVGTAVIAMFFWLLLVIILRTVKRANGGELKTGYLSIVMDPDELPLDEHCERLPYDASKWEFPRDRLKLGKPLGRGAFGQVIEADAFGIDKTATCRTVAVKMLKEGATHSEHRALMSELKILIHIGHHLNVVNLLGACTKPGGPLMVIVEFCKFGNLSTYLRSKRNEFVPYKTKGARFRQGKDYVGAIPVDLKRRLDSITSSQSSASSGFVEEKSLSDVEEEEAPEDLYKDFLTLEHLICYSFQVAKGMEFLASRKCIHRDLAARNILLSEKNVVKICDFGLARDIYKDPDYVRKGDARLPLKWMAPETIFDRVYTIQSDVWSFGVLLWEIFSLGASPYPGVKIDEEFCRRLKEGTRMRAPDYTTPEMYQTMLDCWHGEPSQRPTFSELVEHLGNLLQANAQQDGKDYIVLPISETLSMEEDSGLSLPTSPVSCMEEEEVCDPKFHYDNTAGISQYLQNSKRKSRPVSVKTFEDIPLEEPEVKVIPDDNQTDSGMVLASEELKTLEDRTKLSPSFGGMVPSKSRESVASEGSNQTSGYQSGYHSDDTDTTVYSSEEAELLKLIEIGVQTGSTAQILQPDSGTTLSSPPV

Take `CC(Oc1ccc2[nH]nc(-c3nc4c([nH]3)CN(C(=O)N3CCN(C)CC3)C4)c2c1)c1c(Cl)cncc1Cl` (centres unmarked) [Compound 1, (2-(5-(1-(3,5-dichloropyridin-4-yl)ethoxy)-1H-indazol-3-yl)-4,6-dihydropyrrolo[3,4-d]imidazol-5(1H)-yl)(4-methylpiperazin-1-yl)ketone]: the IC50 against FGFR1 V561M was found to be 0.26 nM; at FGFR2 V564F, 0.34 nM; against FGFR3 V555M it was 0.34 nM; against VEGFR2 it was 1 nM; against FGFR1, 2.7 nM; against FGFR2 it was 2.9 nM. Also, at FGFR3, the IC50 came out at 4.1 nM.
Take `CC(Oc1ccc2[nH]nc(-c3nc4c([nH]3)CN(C(=O)N3CCN(C)CC3)CC4)c2c1)c1c(Cl)cncc1Cl` (centres unmarked) [Compound 5, (2-(5-(1-(3,5-dichloropyridin-4-yl)ethoxy)-1H-indazol-3-yl)-3,4,6,7-tetrahydro-5H-imidazo[4,5-c]pyridin-5-yl)(4-methylpiperazin-1-yl)ketone]: the IC50 was 0.58 nM against FGFR1 V561M; 0.36 nM against FGFR2 V564F; 0.23 nM against FGFR3 V555M; 0.75 nM at VEGFR2; 1.8 nM against FGFR1; 2.1 nM against FGFR2. In addition, on FGFR3, inhibition was half-maximal at 3.8 nM (IC50).
Regarding `CC(Oc1ccc2[nH]nc(-c3nc4c([nH]3)CN(C(=O)N3CCOCC3)C4)c2c1)c1c(Cl)cncc1Cl` (centres unmarked) [Compound 8, (2-(5-(1-(3,5-dichloropyridin-4-yl)ethoxy)-1H-indazol-3-yl)-4,6-dihydropyrrolo[3,4-d]imidazol-5(1H)-yl)(morpholinyl)ketone], the IC50 against FGFR1 V561M is 0.33 nM; on FGFR2 V564F, 0.36 nM; against FGFR3 V555M, 0.45 nM; on VEGFR2, 2.1 nM; against FGFR1, 4.1 nM; at FGFR2, 2.8 nM. The molecule further returned an IC50 against FGFR3 of 4.5 nM.
Regarding `CC(Oc1ccc2[nH]nc(-c3nc4c([nH]3)CN(C(=O)N3CC[C@H](O)C3)C4)c2c1)c1c(Cl)cncc1Cl` (stereo partly drawn) [Compound 10, (2-(5-(1-(3,5-dichloropyridin-4-yl)ethoxy)-1H-indazol-3-yl)-4,6-dihydropyrrolo[3,4-d]imidazol-5(1H)-yl)((S)-3-hydroxypyrrolidin-1-yl)ketone], the 50% inhibitory concentration (IC50) at FGFR1 V561M worked out at 0.2 nM; against FGFR2 V564F it was 0.33 nM; against FGFR3 V555M, 0.35 nM; against VEGFR2, 2.4 nM; on FGFR1, 3.1 nM; against FGFR2 it was 2.2 nM. This molecule came in with an IC50 on FGFR3 of 3.4 nM.
As for `CC(Oc1ccc2[nH]nc(-c3nc4c([nH]3)CN(C)C4)c2c1)c1c(Cl)cncc1Cl` (centres unmarked) [Compound 11, 5-(1-(3,5-dichloropyridin-4-yl)ethoxy)-3-(5-methyl-1,4,5,6-tetrahydropyrrolo[3,4-d]imidazol-2-yl)-1H-indazole], the IC50 against FGFR1 V561M was 0.46 nM; on FGFR2 V564F it was 1.3 nM; on FGFR3 V555M it was 1.1 nM; at VEGFR2, 25.6 nM; against FGFR1, 1.7 nM; on FGFR2, 0.95 nM. Moreover, the midpoint of inhibition against FGFR3, the IC50, lay at 0.6 nM.

By IC50 is commonly meant the point on the concentration scale where inhibition reaches its midpoint. Lower therefore signals inhibition by little substance.
